In article PMC10150365 (Journal of Medicinal Chemistry, 2023):
Values after ≈ are worked out from the molar mass of the structure shown. Values joined by “and” are separate entries in the source; they are usually repeats but may differ in a detail not shown here. Equal values may be shown once. Read-outs that look alike come from different tables or passages of the source. Marks after values point to notes of the source that are not given here.

Tests used:
SK-OV-3 = experiment: cells; type: cell-based, human
in vitro [1] = type: in vitro ADME; conditions: mouse; for hepatocyte CLint at 1 h, 1 µM: hepatocytes, n = 1, read-out: Mouse Heps CLint; for Pred. in vivo CLu from Heps: fraction unbound in assay assumed 0.4 or 0.2
[2] = Free fraction in CellTiter-Blue assay medium (dialysis); type: in vitro ADME; conditions: dialysis from CellTiter-Blue assay medium; 90% CI
physchem [3] = conditions: pH 7.4
physchem [4] = conditions: pH 7.4; remark: listed apart in the source
Mouse blood PK (BALB/c) = conditions: for Fmax / iv Cltb / Free Cav^0–24h / CLu / Vdu / AUC: BALB/c mice; for iv Cltb: iv 5 mg/kg (18: 1 mg/kg); for Free Cav^0–24h: AUC^inf/24*fub; for CLu: CLtb/fub; for Vdu: Vss/fub; for Vd / half-life at 24 h: iv
[5] = Plasma protein binding and blood-to-plasma ratio; conditions: for fub: BALB/c mouse blood, fub = fup/B:P; for Plasma, fup: BALB/c mouse, 90% CI
[6] = iv PK in CF1 wild-type and P-gp-knockout mice; type: in vivo, mouse; conditions: mouse, whole blood, iv, 5 mg/kg, read-out: Vss
P-gp = experiment: iv PK in CF1 wild-type and P-gp-knockout mice; type: in vivo, mouse; conditions: 5 mg/kg iv, 90% CI
in vitro [7] = type: in vitro ADME, mouse; conditions: male, CD1, mouse, microsomes, pH 7.4; n = 1, fraction unbound assumed 1; read-out: Microsome Clint, mouse (MLM)
in vitro [8] = type: in vitro ADME; conditions: male, Sprague Dawley, rat, microsomes, pH 7.4; n = 1, fraction unbound assumed 1; read-out: Microsome Clint, rat (RLM)
in vitro [9] = type: in vitro ADME; conditions: both sexes, human, microsomes, pH 7.4; n = 1, fraction unbound assumed 1; read-out: Microsome Clint, human (HLM)
[10] = for FaSSGF Concentration, replicates 1-3: pH 1.6, individual replicates; for FaSSIF Concentration, replicates 1-3 / FeSSIF Concentration, replicates 1-3: pH 6.5, individual replicates
physchem [11] = experiment: physchem
[12] = Homo sapiens, SK-OV-3, 96 h; read-out: SK-OV-3 pGI50 ± SEM (n) (converted)
[13] = Homo sapiens, SK-OV-3; 96 h, CellTiter-Blue, geometric mean; read-out: SK-OV-3 GI50
[14] = female, BALB/c, mouse, in vivo, po, 5 mg/kg
[15] = female, BALB/c, mouse, in vivo, po, 5 mg/kg, AUCu^0–6h, AUC*fub
[16] = female, BALB/c, mouse, in vivo, po, 5 mg/kg, po AUC^0–6h, po 5 mg/kg, 90% CI
[17] = female, BALB/c, mouse, whole blood, po, 5 mg/kg
[18] = pH 1.6, Thermodynamic solubility FaSSGF (mean), pH 1.6, 37 °C, 1 mg/mL (top limit of assay)
[19] = pH 6.5, Thermodynamic solubility FaSSIF (mean), pH 6.5, 37 °C, 1 mg/mL

Compound: CC(C)N1CCN(Cc2ccc3cc(C(=O)Nc4cc(NC(=O)c5ccc6c(c5)OCCO6)ccc4Cl)ccc3n2)CC1 [Compound 18, N-(2-Chloro-5-(2,3-dihydrobenzo[b][1,4]dioxine-6-carboxamido)phenyl)-2-((4-isopropylpiperazin-1-yl)methyl)quinoline-6-carboxamide]
- GI50 (SK-OV-3; [12]): 14.8 nM
- GI50 (SK-OV-3; [13]): 15 nM
- hepatocyte CLint at 1 h, 1 µM (in vitro [1]): 28 µL/min/1e6 cells
- Pred. in vivo CLu from Heps (in vitro [1]): 930 ^i mL/min/kg
- Assay medium, fua [2]: 0.16 (0.18-0.15)
- chromatographic logD (physchem [3]): 2.3
- solubility kinetic at 2 h, 100 µM (physchem [4]): 70 µM (≈ 42 µg/mL)
- Fmax (Mouse blood PK (BALB/c)): 63%
- iv Cltb (Mouse blood PK (BALB/c); 90% CI): 33 (35–31) mL/min/kg
- Free Cav^0–24h (Mouse blood PK (BALB/c); po): 1.6 nM
- CLu (Mouse blood PK (BALB/c)): 3000 mL/min/kg
- Vdu (Mouse blood PK (BALB/c)): 450 L/kg
- Vd (Mouse blood PK (BALB/c); female, BALB/c, mouse, in vivo): 4.9 L/kg
- half-life at 24 h (Mouse blood PK (BALB/c); female, BALB/c, mouse, in vivo, 1 mg/kg): 2 h
- Cmax (Mouse blood PK (BALB/c); [14]): 550 nM
- Tmax at 24 h (Mouse blood PK (BALB/c); [14]): 1.7 h
- bioavailability at 24 h (Mouse blood PK (BALB/c); [14]): 63%
- AUC (Mouse blood PK (BALB/c); [15]): 0.026 µM·h
- AUC (Mouse blood PK (BALB/c); [16]): 2.4 µM·h
- fub [5]: 0.011
- Plasma, fup [5]: 0.012 (0.014-0.010)

Compound: Cc1ccc(NC(=O)c2ccc3c(c2)OCCO3)cc1NC(=O)c1ccc2nc(OCCN3CCCCC3)ccc2c1 [Compound 17, N-(5-(2,3-Dihydrobenzo[b][1,4]dioxine-6-carboxamido)-2-methylphenyl)-2-(2-(piperidin-1-yl)ethoxy)quinoline-6-carboxamide]
- GI50 (SK-OV-3; Homo sapiens, SK-OV-3, 96 h, read-out: SK-OV-3 GI50): 1.1 nM
- GI50 (SK-OV-3; Homo sapiens, SK-OV-3, 96 h, read-out: SK-OV-3 pGI50 ± SEM (n) (converted)): 1.07 nM
- Vd ([6]; CF1 mdr1a P-gp deficient (CF1-Abcb1amds), CF1^PGP-KO mice): 3.6 L/kg
- Vd ([6]; CF1 wild type, CF1^WT mice): 4.7 L/kg
- Cltb (P-gp; CF1^PGP-KO mice): 38 (43-37) mL/min/kg
- Cltb (P-gp; CF1^WT mice): 47 (62-35) mL/min/kg
- iv Cltb (Mouse blood PK (BALB/c); 90% CI): 40 (48–32) mL/min/kg
- Free Cav^0–24h (Mouse blood PK (BALB/c); po): 0.83 nM
- CLu (Mouse blood PK (BALB/c)): 2700 mL/min/kg
- Vdu (Mouse blood PK (BALB/c)): 340 L/kg
- Tmax at 24 h (Mouse blood PK (BALB/c); [14]): 2.3 h
- bioavailability at 24 h (Mouse blood PK (BALB/c); [14]): 24%
- AUC (Mouse blood PK (BALB/c); [15]): 0.012 µM·h
- AUC (Mouse blood PK (BALB/c); [16]): 0.83 µM·h
- Vd (Mouse blood PK (BALB/c); female, BALB/c, mouse, whole blood): 5.1 L/kg
- Cmax (Mouse blood PK (BALB/c); [17]): 180 nM
- Tmax (Mouse blood PK (BALB/c); [17]): 2 h
- fub [5]: 0.015
- Plasma, fup [5]: 0.022 (0.027-0.017)

Compound: CN1CCN(Cc2ccc3cc(C(=O)Nc4cc(NC(=O)c5ccc6c(c5)OCCO6)ccc4Cl)ccc3n2)CC1 [Compound 20, N-(2-Chloro-5-(2,3-dihydrobenzo[b][1,4]dioxine-6-carboxamido)phenyl)-2-((4-methylpiperazin-1-yl)methyl)quinoline-6-carboxamide]
- GI50 (SK-OV-3; [12]): 19.1 nM
- GI50 (SK-OV-3; [13]): 19 nM
- chromatographic logD (physchem [3]): 2.1
- solubility kinetic at 2 h, 100 µM (physchem [4]): 30 µM (≈ 17.2 µg/mL)

Compound: O=C(Nc1ccc(Cl)c(NC(=O)c2ccc3nc(CN4CCNCC4)ccc3c2)c1)c1ccc2c(c1)OCCO2 [Compound 19, N-(2-Chloro-5-(2,3-dihydrobenzo[b][1,4]dioxine-6-carboxamido)phenyl)-2-(piperazin-1-ylmethyl)quinoline-6-carboxamide]
- GI50 (SK-OV-3; [12]): 11.5 nM
- GI50 (SK-OV-3; [13]): 12 nM

Compound: Cc1ccc(NC(=O)c2ccc3c(c2)OCCO3)cc1NC(=O)c1ccc2nc(CN3CCCC3)ccc2c1 [Compound 11, N-(5-(2,3-Dihydrobenzo[b][1,4]dioxine-6-carboxamido)-2-methylphenyl)-2-(pyrrolidin-1-ylmethyl)quinoline-6-carboxamide]
- GI50 (SK-OV-3; [12]): 6.17 nM
- GI50 (SK-OV-3; [13]): 6.2 nM
- microsomal CLint (in vitro [7]): 21 µL/min/mg
- microsomal CLint at 0.75 h, 1 µM (in vitro [8]): 20 µL/min/mg
- microsomal CLint at 0.75 h, 1 µM (in vitro [9]): 23 µL/min/mg
- chromatographic logD (physchem [3]): 1.9
- solubility kinetic at 2 h, 100 µM (physchem [4]): 40 µM (≈ 20.9 µg/mL)

Compound: Cc1ccc(NC(=O)c2ccc3c(c2)OCCO3)cc1NC(=O)c1ccc2nc(CN(C)C)ccc2c1 [Compound 12, N-(5-(2,3-Dihydrobenzo[b][1,4]dioxine-6-carboxamido)-2-methylphenyl)-2-((dimethylamino)methyl)quinoline-6-carboxamide]
- GI50 (SK-OV-3; [12]): 11.7 nM
- GI50 (SK-OV-3; [13]): 12 nM
- chromatographic logD (physchem [3]): 1.4
- solubility kinetic at 2 h, 100 µM (physchem [4]): 50 µM (≈ 24.8 µg/mL)

Compound: Cc1ccc(NC(=O)c2ccc3c(c2)OCCO3)cc1NC(=O)c1ccc2nc(CN3CCN(C)CC3)ccc2c1 [Compound 15, N-(5-(2,3-Dihydrobenzo[b][1,4]dioxine-6-carboxamido)-2-methylphenyl)-2-((4-methylpiperazin-1-yl)methyl)quinoline-6-carboxamide]
- GI50 (SK-OV-3; [12]): 9.55 nM
- GI50 (SK-OV-3; [13]): 9.5 nM
- microsomal CLint (in vitro [7]): 21 µL/min/mg
- microsomal CLint (in vitro [8]): 33 µL/min/mg
- microsomal CLint (in vitro [9]): 33 µL/min/mg
- chromatographic logD (physchem [3]): 1.6
- solubility kinetic at 2 h, 100 µM (physchem [4]): 80 µM (≈ 44.1 µg/mL)

Compound: CCN1CCN(Cc2ccc3cc(C(=O)Nc4cc(NC(=O)c5ccc6c(c5)OCCO6)ccc4Cl)ccc3n2)CC1 [Compound 21, N-(2-Chloro-5-(2,3-dihydrobenzo[b][1,4]dioxine-6-carboxamido)phenyl)-2-((4-ethylpiperazin-1-yl)methyl)quinoline-6-carboxamide]
- GI50 (SK-OV-3; [12]): 11 nM
- GI50 (SK-OV-3; [13]): 11 nM
- hepatocyte CLint at 1 h, 1 µM (in vitro [1]): 71 µL/min/1e6 cells
- Pred. in vivo CLu from Heps (in vitro [1]): 1400 ^i mL/min/kg
- Assay medium, fua [2]: 0.15 (0.15-0.14)
- chromatographic logD (physchem [3]): 2.2
- solubility kinetic at 2 h, 100 µM (physchem [4]): 50 µM (≈ 29.3 µg/mL)
- Fmax (Mouse blood PK (BALB/c)): 69%
- Free Cav^0–24h (Mouse blood PK (BALB/c); po): 1.3 nM
- CLu (Mouse blood PK (BALB/c)): 5300 mL/min/kg
- Vdu (Mouse blood PK (BALB/c)): 1100 L/kg
- bioavailability (Mouse blood PK (BALB/c); female, BALB/c, mouse, in vivo): 100%
- Vd (Mouse blood PK (BALB/c); female, BALB/c, mouse, in vivo): 5.7 L/kg
- half-life at 24 h (Mouse blood PK (BALB/c); female, BALB/c, mouse, in vivo, 5 mg/kg): 2.3 h
- Cmax (Mouse blood PK (BALB/c); [14]): 880 nM
- Tmax at 24 h (Mouse blood PK (BALB/c); [14]): 1.7 h
- bioavailability (Mouse blood PK (BALB/c); [14]): 96%
- AUC (Mouse blood PK (BALB/c); [15]): 0.02 µM·h
- AUC (Mouse blood PK (BALB/c); [16]): 3.9 µM·h
- fub [5]: 0.0053
- Plasma, fup [5]: 0.013 (0.015-0.011)

Compound: O=c1[nH]c2ccccc2n1C1CCN(CCCC(c2ccc(F)cc2)c2ccc(F)cc2)CC1 [Pimozide]
- FaSSGF Concentration, replicates 1-3 [10]: 0.087 mg/mL and 0.092 mg/mL and 0.090 mg/mL
- FaSSIF Concentration, replicates 1-3 [10]: 0.004 mg/mL and 0.003 mg/mL
- FeSSIF Concentration, replicates 1-3 [10]: 0.018 mg/mL and 0.008 mg/mL and 0.007 mg/mL
- solubility thermodynamic (physchem [11]; [18]): 90 µg/mL (≈ 195 µM)
- solubility thermodynamic (physchem [11]; [19]): 4 µg/mL (≈ 8.67 µM)

Compound: CC(C)NCC(O)COc1cccc2ccccc12 (stereo not drawn) [Propranolol]
- FaSSGF Concentration, replicates 1-3 [10]: 1.246 mg/mL and 1.094 mg/mL and 1.002 mg/mL
- FaSSIF Concentration, replicates 1-3 [10]: 0.853 mg/mL and 1.047 mg/mL and 0.931 mg/mL
- FeSSIF Concentration, replicates 1-3 [10]: 1.669 mg/mL and 1.812 mg/mL and 1.465 mg/mL
- solubility thermodynamic (physchem [11]; [18]): 1110 µg/mL (≈ 4300 µM)
- solubility thermodynamic (physchem [11]; [19]): 944 µg/mL (≈ 3640 µM)

Compound: Cc1ccc(NC(=O)c2ccc3c(c2)OCCO3)cc1NC(=O)c1ccc2nc(CN3CCCC3C)ccc2c1 (racemic) [Compound 13, Racemic-N-(5-(2,3-Dihydrobenzo[b][1,4]dioxine-6-carboxamido)-2-methylphenyl)-2-((2-methylpyrrolidin-1-yl)methyl)quinoline-6-carboxamide]
- GI50 (SK-OV-3; [12]): 7.08 nM
- GI50 (SK-OV-3; [13]): 7.1 nM
- chromatographic logD (physchem [3]): 2.3
- solubility kinetic at 2 h, 100 µM (physchem [4]): 50 µM (≈ 26.8 µg/mL)

Compound: Cc1ccc(NC(=O)c2ccc3c(c2)OCCO3)cc1NC(=O)c1ccc2nc(CN3CCCCC3)ccc2c1 [Compound 14, N-(5-(2,3-Dihydrobenzo[b][1,4]dioxine-6-carboxamido)-2-methylphenyl)-2-(piperidin-1-ylmethyl)quinoline-6-carboxamide]
- GI50 (SK-OV-3; [12]): 21.9 nM
- GI50 (SK-OV-3; [13]): 73 nM
- solubility kinetic at 2 h, 100 µM (physchem [4]): 2 µM (≈ 1.07 µg/mL)
